Test results taken from patent US10392363B2, “Methods for treating protozoan infections” (Neoculi Pty Ltd., priority 2014, dated 2019).
Where “and” joins values, the source holds several entries; their conditions need not be identical. Equal values may be shown once.

Tests used:
[1] = Cell toxicity assay (WST-1); type: cell-based, mouse; conditions: mouse, RAW 264.7 macrophages, RAW 264.7, 24 hours, read-out: GI50 macrophage
Method: Cell toxicity assays. Mouse macrophages (RAW 264.7) were grown in RPM11640 media supplemented with L-glutamine and 10% foetal calf serum. Cells were trypsanised when 80% confluent and subcultured every 3-4 days. For cytotoxicity assays cells were diluted to a final cell concentration of 2×10^4 cells/ml and 198 μl added to each well of a 96 well plate. Cells were incubated in a humidified incubator for 2 hours at 37° C. 5% CO2 before the addition of NCL compounds (2 μl/well, previously diluted in DMSO). Campothecin, triton X and DMSO only were used as controls. Cells were exposed to the compounds for 24 hours. The metabolic activity of the cells was determined using the WST-1 assay system (Roche Life Science). The supernatant was removed, 100 μl of PBS with 10% WST-1 was added to each well and incubated for 1 hr before reading absorbance at 450 nm. The selectivity index of the compounds was determined by dividing the IC50 of macrophages by the IC50 against parasites. IC50 was determined via graphpad prism software.

[2] = Microsomal stability, mouse; type: in vitro ADME; conditions: mouse liver microsomes
Method: (§1) Incubation methods: The metabolic stability assay was performed by incubating each test compound (at 1 μM) with human and mouse liver microsomes (Xenotech, Lot#1210057 and 1310211, respectively) at 37° C. and 0.4 mg/mL protein concentration. The metabolic reaction was initiated by the addition of an NADPH-regenerating system (i.e. NADPH is the cofactor required for CYP450-mediated metabolism) and quenched at various time points over a 60 minute incubation period by the addition of acetonitrile containing diazepam as internal standard. Control samples (containing no NADPH) were included (and quenched at 2, 30 and 60 minutes) to monitor for potential degradation in the absence of cofactor. Analytical conditions: Instrument: Waters Micromass Xevo G2 QTOF coupled to a Waters Acquity UPLC; Detection: Positive electrospray ionisation under MSE mode; Cone Voltage 30 V; Column: Ascentis Express Amide column (50×2.1 mm, 2.7 μm); LC conditions: Gradient cycle time: 4 minutes; Injection volume: 5 μL; Flow rate: 0.4 mL/min; Mobile phase: Acetonitrile-water gradient with 0.05% formic acid Metabolite; Identification: A metabolite screen was not included in this study, however, since data was acquired using MSE mode, which allows for the simultaneous acquisition of low and high collision energy MS spectra, a post-hoc metabolite search may be conducted at a later date if warranted. […]

[3] = tested on: Trypanosoma cruzi (Tulahuen trypomastigotes expressing β-galactosidase, in L6 cells); assay: In vitro T. cruzi assay for determination of IC50; type: cell-based; conditions: Trypanosoma cruzi, TULAHUEN, L6; 96 h incubation
Method: The T. cruzi assay uses Tulahuen trypomastigotes expressing the β-galactosidase gene. The parasites were maintained in vitro by serial passage in L6 cells. […] Extracellular trypomastigotes were then removed and NCL compounds were added in seven-point serial dilutions performed in triplicate. Benznidazole (Epichem Pty Ltd.) was included as a control. […] After 4-6 h, a colour change following catabolisation of the reagent by viable T. cruzi was observed and absorbance was read at 530 nm using a Dynex microplate reader. […] For each compound, % inhibition values were used to generate a standard curve from which the IC50 was calculated. Each assay was performed at least twice, and the average was used.

[4] = Microsomal stability, human; type: in vitro ADME; conditions: human liver microsomes
Method: as §1

[5] = tested on: Leishmania donovani promastigotes; assay: L. donovani screening (Alamarblue); type: cell-based; conditions: for L. donovani SI: GI50 of macrophages divided by IC50 of parasites; for inhibition at 10 µM: 96 hrs, read-out: reduction of metabolic activity / inhibition of L. donovani
Method: L. donovani Screening. Procyclic promastigotes from exponentially growing cultures maintained in DME-L+ Bob additions were used for all assays. Compounds were initially screened for activity at 10 μM. Compounds were diluted in culture media to a […] in 96 well plates. Promastigotes were diluted to a density of ˜8×10^5 cells/ml then added to the assay plate resulting in a final cell density of 4×10^5 cells/ml. in 96 well plates. Cells were incubated for 96 hrs at 27° C. before the addition of Alamarblue (thermofisher). Fluorescence was read at excitation 530 nm and Emission 590 nm. […] Compounds were serially diluted in thirds, in a 96 well plate, in cell growth media so that concentrations ranged from 0.005 to 10 μM and promastigotes added to a final concentration of 1×10^6 cells/ml. Cells were incubated at 27° C. for 72 hours before the addition of alamar blue. Fluorescence was measured as above.

[6] = tested on: Giardia duodenalis (strain WB trophozoites); assay: Giardia adherence assay; type: cell-based; conditions: NCL099 at 11, 38 and 128 μg/ml compared to the control
Method: Giardia strain WB was grown until confluent (grown and maintained in TYI-S-33 medium with 10% foetal bovine serum). For the assay, media of a confluent culture was replaced with fresh TYI-S-33 medium. Cultures were then cold shocked (on ice) for 40 minutes to detach trophozoites. The cell density of the cultures was adjusted to 1×10^6 cells/ml and 1 ml was added to each well of a 24 well plate already containing 1 ml of diluted compounds (see below). […] After incubation the coverslips were removed, air-dried and stained with Diff-Quik (a Romanowski stain variant). Coverslips were mounted onto glass slides using polymount. Images at 10× magnification were taken at 5 random locations per coverslip. […] Stock solutions of compounds were prepared in DMSO at 25.6 mg/ml. Compounds were diluted 1:100 in TYI-S-33 medium. A 1:2 serial dilution was then performed in TYI-S-33 medium in 24 well plates.

[7] = tested on: sheep erythrocytes; assay: Erythrocyte haemolysis assay; type: cell-based; conditions: compared to NCL812 and NCL062
Method: Whole sheep blood was obtained from Thermofisher scientific. The red blood cells were separated from other blood components via centrifugation at 1500 g for 10 minutes and washed with saline 3 times. Erythrocytes were diluted to a concentration of ˜1×10^10 cells/ml in saline. 50 μl of NCL compounds diluted in DMSO (see below) were added to 1.5 ml Eppendorf tubes and 500 μl of diluted red blood cells were added to each tube. Erythrocytes were incubated with compounds for 30 minutes at 37° C. with gentle shaking (75 rpm). After incubation cells were placed on ice for 5 minutes then centrifuged at 1500 rpm for 10 minutes to pellet cells. The supernatant was removed and serially diluted in saline. Absorbance of the supernatant and dilutions were recorded at 550 nm. Sample lysis was compared relative to cells lysed 100% in distilled water and analysed using GraphPad Prism v6 software.

[8] = Release from Formulation B (Franz diffusion cells); type: physicochemical; conditions: absolute ethanol receptor, 32° C., up to 24 hours
Method: Franz diffusion cells were utilized to quantify the release rate of NCL 812 and NCL099 from its topical formulations. Five milliliters of absolute ethanol, which was chosen as the desired release medium, was loaded into the receptor chamber. Temperature of the receptor fluid was kept constant, at 32±1° C. using a water jacket. Acetyl cellulose membranes, with pore size of 0.45 μm (Pall Corporation) was selected and placed between donor and receptor chamber. Followed by that, a number of test samples (Formulation B) was loaded into the donor chamber. One milliliter of receptor fluid was collected at regular time intervals of 0.25, 0.50, 0.75, 1, 2, 3, 4, 5, 6, 7, 8 and 24 hours through the sampling port. One milliliter of fresh absolute ethanol was immediately returned to the receptor chamber. UV-HPLC was utilized to analyse the content of the receptor fluids attained.

[9] = tested on: S. aureus ATCC 29213; assay: S. aureus MIC; type: cell-based; conditions: MIC after 24 hours
[10] = tested on: Giardia WB (Giardia duodenalis); assay: Resazurin Reduction Assay (Example 9); type: cell-based
Method: Giardia trophozoites were grown until confluent. The media was replaced with fresh media and cold shocked for 40 minutes. Compounds were prepared in DMSO and serially diluted 2-fold in DMSO starting at with a 1/100 dilution of the stock (e.g. 128 mg/ml stock starting dilution would be […]). 2 μl of dilutions were added to the appropriate wells and 198 ul of TYI-S-33 media added to each well. Cells were diluted to a concentration of ˜500 000 cells/ml and 100 μl were added to each well of the assay plate (except media only control). The assay was incubated in an anaerobic environment (candle jar) for 5 hours at 37° C. The media was removed and replaced with 100 μl of warm PBS then Alamarblue™ added to a concentration of 10%. The samples were incubated in an anaerobic environment until colour development. After incubation, the absorbance of each sample was read at 570 and 630 nm. The percent reduction of resazurin (Alamarblue™) was calculated (using the formula below) and data was analysed with GraphPad Prism v6 software. The formula used to calculate percent reduction of Alamarblue was ((Eoxi630×A570)−(Eoxi570×A630))/((Ered570×C630)−(Ered×C570))×100, Where: Eoxi630=34798, Eoxi570=80586, A570=absorbance at 570 nm, A630=absorbance at 630 nm, Ered570=155677, Ered630=5494, C630=absorbance of negative control well at 630 nm and C570=absorbance of negative control well at 570 nm.

[11] = tested on: T. cruzi infection; conditions: cited from earlier work

## COc1ccccc1/C=N/NC(=N)N/N=C/c1ccccc1OC.Cl [NCL028]
[1]
  GI50 at 24 h: 8.1 ± 2.76 µM
[2]
  rate of degradation: high (high (0.7-0.95))
[3]
  IC50: 13 µM
[4]
  rate of degradation: low (low (<0.3))
[5]; 72 hours
  IC50: 0.29 ± 0.05 µM
[5]
  L. donovani SI: highly selective
[5]; listed as NCL 028
  L. donovani SI: 27.9
[5]; Leishmania donovani, 72 h
  IC50: 0.37 µM
[5]; Leishmania donovani
  inhibition at 10 µM: 100%

## CC(C)(C)c1ccc(/C=N/NC(=N)N/N=C/c2ccc(C(C)(C)C)cc2)cc1.Cl [NCL099]
[1]
  GI50 at 24 h: 7.66 ± 0.56 µM
[6]
  number of adherent cells: significant decrease
[7]
  selectivity for bacterial and protozoal cells than mammalian cells: greater selectivity
[5]; Leishmania donovani, 72 h
  IC50: 0.37 ± 0.04 µM
[5]; Leishmania donovani
  inhibition at 10 µM: 100%
[8]
  release profile from Formulation B: acceptable release profile

## C/C(=N\NC(=N)N/N=C(\C)c1ccc(C(C)(C)C)cc1)c1ccc(C(C)(C)C)cc1.Cl [NCL219]
[1]
  GI50 at 24 h: 19.3 ± 3.77 µM
[9]; Staphylococcus aureus, ATCC29213
  MIC: > 100 µg/mL
[5]
  L. donovani SI: highly selective
[5]; listed as NCL 219
  L. donovani SI: 24.08
[5]; Leishmania donovani, 72 h
  IC50: 0.8 ± 0.1 µM
[5]; Leishmania donovani
  inhibition at 10 µM: 100%
[10]; Giardia, 5 h
  IC50: 1.03 µM and 0.4 µg/mL

## NC(N)=N/N=C(\CC1CCCCC1)c1ccc(Cl)cc1O [NCL237]
[9]
  S. aureus ATCC 29213 MIC: 4.8 µg/mL
[10]; IC50 after 5 hours
  Giardia WB IC50: 22.8^ ug/ml

## O=C(Cn1ccnc1[N+](=O)[O-])NCc1ccccc1 [benznidazole]
[11]; children with chronic T. cruzi infection, negative serology 3 to 4 years after treatment
  cure rate: around 60%

## CC1CS(=O)(=O)CCN1/N=C/c1ccc([N+](=O)[O-])o1 (centres unmarked) [nifurtimox]
[11]; anorexia, weight loss, nausea, vomiting
  patients with gastrointestinal side effects: up to 70%
